Measurements reported in patent US12692262B2, “Substituted ureas as orexin receptor agonists” (Merck Sharp & Dohme LLC, priority 2020, dated 2026).

Molecular target: T1, human OX2R (Homo sapiens, UniProt O43614)
T1 construct: expressed in transfected cells; host or cells: CHO (Chinese hamster ovary) cells grown under G418 selection
T1 sequence (O43614 1-444): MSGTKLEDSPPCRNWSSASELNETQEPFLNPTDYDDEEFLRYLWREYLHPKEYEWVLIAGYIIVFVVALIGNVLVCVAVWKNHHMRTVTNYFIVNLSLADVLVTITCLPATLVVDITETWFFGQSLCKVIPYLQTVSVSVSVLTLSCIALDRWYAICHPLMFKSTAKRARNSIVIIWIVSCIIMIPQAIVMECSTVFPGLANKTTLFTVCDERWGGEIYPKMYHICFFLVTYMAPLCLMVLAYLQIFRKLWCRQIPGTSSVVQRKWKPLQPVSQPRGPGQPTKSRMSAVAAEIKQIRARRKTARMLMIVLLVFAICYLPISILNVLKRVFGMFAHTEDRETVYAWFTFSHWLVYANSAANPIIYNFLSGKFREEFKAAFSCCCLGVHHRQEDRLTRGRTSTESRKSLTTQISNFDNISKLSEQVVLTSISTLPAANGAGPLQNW
Test: IPOne (IP-1 accumulation) assay in CHO cells expressing human OX2R
Assay type: cell-based
Details: for EC50: CHO cells expressing human OX2R, IP-One assay, 2 h incubation, four parameter logistic fit, read-out: OX2R Potency, EC50; for % of maximum agonist effect (relative to Orexin A): percent effect vs mean max effect of a reference compound at 1 uM (100% activity vs Orexin A), human OX2R
How it was run: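 CHO cells stably expressing human OX2R, grown in Iscove's modified DMEM with 10% FBS; agonist-driven IP-1 accumulation via the Gαq pathway measured by HTRF (D2/AB-cryptate detection after lysis). EC50 taken as the inflection point of a four-parameter logistic fit.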

| SMILES | EC50 [nM] | % of maximum agonist effect (relative to Orexin A) [%] |
| --- | --- | --- |
| CCN(C(=O)NC(CCC(C)=O)C(F)(F)F)[C@H](C)c1cccc(-c2cn3ccnc3c(OC)n2)c1 (stereo partly drawn) [Example 2-54, 1-ethyl-1-((R)-1-(3-(8-methoxyimidazo[1,2-a]pyrazin-6-yl)phenyl)ethyl)-3-(1,1,1-trifluoro-5-oxohexan-2-yl)urea] | 1.6 | 99.4 |
| CCN(C(=O)NCC(F)(F)F)[C@H](C)c1cccc(-c2cn3ccnc3c(OC)n2)c1 [Example 1-5, (R)-1-ethyl-1-(1-(3-(8-methoxyimidazo[1,2-a]pyrazin-6-yl)phenyl)ethyl)-3-(2,2,2-trifluoroethyl)urea] | 73.4 | 94.9 |
| CCN(C(=O)N[C@@H](CCC(F)(F)F)C(F)(F)F)C(=C(F)F)c1cc(-c2cn3ccnc3c(OC)n2)c(OC)cn1 [Example 28, (S)-1-(2,2-difluoro-1-(5-methoxy-4-(8-methoxyimidazo[1,2-a]pyrazin-6-yl)pyridin-2-yl)vinyl)-1-ethyl-3-(1,1,1,5,5,5-hexafluoropentan-2-yl)urea] | 2130 | 97.2 |
| CC[C@H](CCC(F)(F)F)NC(=O)N(CC)[C@@H](c1cc(-c2cn3ccnc3c(OC)n2)c(OC)cn1)C(F)(F)F [Example 2-21, 1-ethyl-1-((S)-2,2,2-trifluoro-1-(5-methoxy-4-(8-methoxyimidazo[1,2-a]pyrazin-6-yl)pyridin-2-yl)ethyl)-3-((R)-6,6,6-trifluorohexan-3-yl)urea] | 0.8 | 99.6 |
| CCN(C(=O)N[C@@H](CCC(F)F)C(F)(F)F)[C@@H](c1cc(-c2cn3cc(C)nc3c(OC)n2)c(OC)cn1)C(F)(F)F [Example 3-3, 1-ethyl-3-((S)-1,1,1,5,5-pentafluoropentan-2-yl)-1-((S)-2,2,2-trifluoro-1-(5-methoxy-4-(8-methoxy-2-methylimidazo[1,2-a]pyrazin-6-yl)pyridin-2-yl)ethyl)urea] | 3.6 | 101.6 |
| CCN(C(=O)N[C@]1(C)C[C@H]1C(F)(F)F)[C@@H](c1cc(-c2cn3ccnc3c(OC)n2)c(OC)cn1)C(F)(F)F [Example 2-31, 1-ethyl-3-((1R,2R)-1-methyl-2-(trifluoromethyl)cyclopropyl)-1-((S)-2,2,2-trifluoro-1-(5-methoxy-4-(8-methoxyimidazo[1,2-a]pyrazin-6-yl)pyridin-2-yl)ethyl)urea] | 35.1 | 99.0 |
| CCN(C(=O)N[C@H](C)c1cccc(F)c1)[C@H](C)c1cccc(-c2cn3ccnc3c(OC)n2)c1 [Example 1-2, 1-ethyl-3-((R)-1-(3-fluorophenyl)ethyl)-1-((R)-1-(3-(8-methoxyimidazo[1,2-a]pyrazin-6-yl)phenyl)ethyl)urea] | 5.2 | 98.3 |
| CCN(C(=O)N[C@@H](CCC(F)(F)F)C(F)(F)F)C(c1ccc(OC)c(-c2cn3ccnc3c(OC)n2)n1)C(F)(F)F (stereo partly drawn) [Example 10-20, 1-ethyl-3-((S)-1,1,1,5,5,5-hexafluoropentan-2-yl)-1-(2,2,2-trifluoro-1-(5-methoxy-6-(8-methoxyimidazo[1,2-a]pyrazin-6-yl)pyridin-2-yl)ethyl)urea] | 0.7 | 101.0 |
| CCN(C(=O)N[C@@H](CCC(F)(F)F)C(F)(F)F)C(c1cc(-c2cn3ccnc3c(OC)n2)c2occc2n1)C(F)(F)F (stereo partly drawn) [Example 2-13, 1-ethyl-3-((S)-1,1,1,5,5,5-hexafluoropentan-2-yl)-1-(2,2,2-trifluoro-1-(7-(8-methoxyimidazo[1,2-a]pyrazin-6-yl)furo[3,2-b]pyridin-5-yl)ethyl)urea] | 2.1 | 99.9 |
| C#CC(NC(=O)N(CC)[C@@H](c1cc(-c2cn3ccnc3c(OC)n2)c(OC)cn1)C(F)(F)F)C(F)(F)F (stereo partly drawn) [Example 5-3, 1-ethyl-1-((S)-2,2,2-trifluoro-1-(5-methoxy-4-(8-methoxyimidazo[1,2-a]pyrazin-6-yl)pyridin-2-yl)ethyl)-3-(1,1,1-trifluorobut-3-yn-2-yl)urea] | 37.4 | 100.5 |
| CC[C@H](CCC(F)(F)F)NC(=O)N(CC)[C@H](C)c1cc2c(c(-c3ccc4nccn4c3)c1)OCC2 [Example 11-1, 1-ethyl-1-((R)-1-(7-(imidazo[1,2-a]pyridin-6-yl)-2,3-dihydrobenzofuran-5-yl)ethyl)-3-((R)-6,6,6-trifluorohexan-3-yl)urea] | 5.6 | 97.4 |
| CC[C@H](CCC(F)(F)F)NC(=O)N(CC)[C@H](C)c1cccc(-c2cn3ccnc3cc2Cl)c1 [Example 8-15, 1-((R)-1-(3-(7-chloroimidazo[1,2-a]pyridin-6-yl)phenyl)ethyl)-1-ethyl-3-((R)-6,6,6-trifluorohexan-3-yl)urea] | 188 | 94.1 |
| CCN(C(=O)N[C@@H](CCC(C)(F)F)C(F)(F)F)[C@H](C)c1cnc(OC)c(-c2cn3ccnc3c(OC)n2)c1 [Example 10-19, 1-ethyl-1-((R)-1-(6-methoxy-5-(8-methoxyimidazo[1,2-a]pyrazin-6-yl)pyridin-3-yl)ethyl)-3-((S)-1,1,1,5,5-pentafluorohexan-2-yl)urea] | 0.8 | 100.6 |
| CCN(C(=O)NC(C1CC(F)(F)CC(C)(C)O1)C(F)(F)F)[C@@H](c1cc(-c2cn3cc(C)nc3c(OC)n2)c(OC)cn1)C(F)(F)F (stereo partly drawn) [Example 2-4, 3-(1-(4,4-difluoro-6,6-dimethyltetrahydro-2H-pyran-2-yl)-2,2,2-trifluoroethyl)-1-ethyl-1-((S)-2,2,2-trifluoro-1-(5-methoxy-4-(8-methoxy-2-methylimidazo[1,2-a]pyrazin-6-yl)pyridin-2-yl)ethyl)urea] | 4.3 | 100.6 |
| CCN(C(=O)NCC(C)C(F)(F)F)[C@@H](c1cc(-c2cn3ccnc3c(OC)n2)c(OC)cn1)C(F)(F)F (stereo partly drawn) [Example 2-11, 1-ethyl-1-((S)-2,2,2-trifluoro-1-(5-methoxy-4-(8-methoxyimidazo[1,2-a]pyrazin-6-yl)pyridin-2-yl)ethyl)-3-(3,3,3-trifluoro-2-methylpropyl)urea] | 30.3 | 97.6 |
| CC[C@H](CCC(F)(F)F)NC(=O)N(CC)[C@H](C)c1cccc(-c2cc(C(F)F)c3nccn3c2)c1 [Example 7-3, 1-((R)-1-(3-(8-(difluoromethyl)imidazo[1,2-a]pyridin-6-yl)phenyl)ethyl)-1-ethyl-3-((R)-6,6,6-trifluorohexan-3-yl)urea] | 491 | 86.1 |
| CCC(/C=C/C(F)(F)F)NC(=O)N(CC)[C@@H](c1cc(-c2cn3cc(C)nc3c(OC)n2)c(OC)cn1)C(F)(F)F (stereo partly drawn) [Example 6-5, 1-ethyl-1-((S)-2,2,2-trifluoro-1-(5-methoxy-4-(8-methoxy-2-methylimidazo[1,2-a]pyrazin-6-yl)pyridin-2-yl)ethyl)-3-((E)-6,6,6-trifluorohex-4-en-3-yl)urea] | 18.9 | 100.0 |
| CCCC(C#N)NC(=O)N(CC)[C@H](C)c1cccc(-c2cn3ccnc3c(OC)n2)c1 (stereo partly drawn) [Example 2-37, 3-(1-cyanobutyl)-1-ethyl-1-((R)-1-(3-(8-methoxyimidazo[1,2-a]pyrazin-6-yl)phenyl)ethyl)urea] | 20 | 100.8 |
| CC[C@H](CCC(F)(F)F)NC(=O)N(CC)[C@H](C)c1cccc(-c2cn3ccnc3c(SC)n2)c1 [Example 8-1, 1-ethyl-1-((R)-1-(3-(8-(methylthio)imidazo[1,2-a]pyrazin-6-yl)phenyl)ethyl)-3-((R)-6,6,6-trifluorohexan-3-yl)urea] | 211 | 96.1 |
| CC[C@H](CCC(F)(F)F)NC(=O)N(CC)Cc1ccc(OC)c(-c2cc(OC)c3nccn3c2)c1 [Example 1-8, (R)-1-ethyl-1-(4-methoxy-3-(8-methoxyimidazo[1,2-a]pyridin-6-yl)benzyl)-3-(6,6,6-trifluorohexan-3-yl)urea] | 0.8 | 96.5 |
| CCN(C(=O)NC(CC(C)C(F)(F)F)C(F)(F)F)[C@H](C)c1cccc(-c2cn3ccnc3c(OC)n2)c1 (stereo partly drawn) [Example 2-2, 1-ethyl-3-(1,1,1,5,5,5-hexafluoro-4-methylpentan-2-yl)-1-((R)-1-(3-(8-methoxyimidazo[1,2-a]pyrazin-6-yl)phenyl)ethyl)urea] | 3.7 | 99.1 |
| CCN(C(=O)N[C@@H](CCC(F)(F)F)C(F)(F)F)[C@H](C)c1cccc(-c2cc(OC)c3ncnn3c2)c1 [Example 8-11, 1-ethyl-3-((S)-1,1,1,5,5,5-hexafluoropentan-2-yl)-1-((R)-1-(3-(8-methoxy-[1,2,4]triazolo[1,5-a]pyridin-6-yl)phenyl)ethyl)urea] | 2 | 95.4 |
